Test system: peripheral blood mononuclear cell (PBMC)
Assay: Cell chromatography retention time of drug-treated PBMC on polystyrene column (150 mm×10 mm), detection at 500 nm
Assay type: cell-based
Conditions: PBMC treated with 10 μg/ml for 2 minutes; PBS pH 7.4, 1 ml/min; un-treated control about 7.7 minutes; FIG. 3
Description: In this example, the column used for analysis of the interaction between small molecule and cell has an inner diameter of 10 mm, a length of 150 mm and a volume of 11.8 ml (150 mm×10 mm). This column was packed with resin particles (size: 1 or 2 millimeter; material: polystyrene) and was washed first and thereafter, filled with a phosphate buffered saline (PBS).
The method is similar as described as above. Whole Blood was separated first by centrifugation using dextran cell separation medium (Ficoll) to yield peripheral blood mononuclear cell (PBMC). Then PBMC was diluted with phosphate buffered saline (PBS) into a cell suspension at concentration of 1×10^6 cells/ml.
Lectin: treated PBMC by 10 μg/ml lectin for two minutes;
Shikonin: treated PBMC by 10 μg/ml shikonin for two minutes.
The cell suspension was added with lectin or shikonin at a concentration of 10 μg/ml (lectin treated group or shikonin treated group). After reacting for 2 minutes, drug-treaded group or un-treated group (control) was loaded on the upper frontier of the column (150 mm×10 mm) respectively, and after adding PBS (pH 7.4) to a level of a pre-determined height, the column was eluted with PBS (pH 7.4) at a steady flow rate of 1 ml/min provided under the action of a pump and integrated with a spectrophotometer, which eluted cells were continuously detected with a wavelength of 500 nm. […]

With `CC(C)=CC[C@@H](O)C1=CC(=O)c2c(O)ccc(O)c2C1=O` [shikonin] as the molecule, how does the “retention time of treated cell in the column” value read?
The value was 6.5 min.
